Values after ≈ are worked out from the molar mass of the structure shown. Values joined by “and” are separate entries in the source; they are usually repeats but may differ in a detail not shown here. Identical values can stand only once. Like-named read-outs stand apart in the source and are kept apart here.
What was measured:
[1] = Equilibrium dissolution of AK Sci niclosamide versus pH (supernatant concentration by UV/Vis at 333 nm)
physchem [2] = assay: physchem
physchem [3] = details: 20 °C, pH 9.5, aqueous buffer, kinetic from dmso stock
[4] = format: physicochemical; details: data and pHp theory
Text: pH=pKa+Log10[Nic−ve]/[NicOH] Eqn 1
pHp=pKa+log(S−So)/So Eqn 4
So=the molar intrinsic solubility of the undissociated acid (NicOH), and S=the molar concentration of the salt form initially added.

[5] = Supersaturated solution precipitation of niclosamide: amount in solution; details: pH 9.5, 3 mM/200 μM
physchem [6] = assay: physchem; remark: listed apart in the source
Protocol: The pKa is defined as the negative base-10 logarithm of the acid dissociation constant (Ka) of a solution). It is an important parameter to consider here because pKa and pH are equal when half of the acid has dissociated. […] Once the pKa is measured (or estimated) the well-known Henderson-Hasselbalch equation calculates the fractions of each species.

[7] = test system: SARS-CoV-2 in Vero 6 cells; details: cited from earlier work
SARS-COV-2 syncytia = details: Braga et al [18]; cited from earlier work
[8] = [11]; cited from earlier work
[9] = test system: SARS-CoV-2 in Calu-3 cells; details: cited from earlier work
in vitro = details: human
Vero E6 cells = details: cited from earlier work
[10] = test system: SARS-CoV-2 in Huh-7 cells; details: infected liver Huh-7 cells, Mirabelli et al [60]; cited from earlier work
[11] = cited from earlier work
[12] = test system: human airway epithelial cells; details: 300 uM
[13] = test system: human airway epithelial cells; assay: cells; details: Epithelial cell, read-out: IC50 for cell viability and ATP

## O=C(Nc1ccc([N+](=O)[O-])cc1Cl)c1cc(Cl)ccc1O [Niclosamide, 5-Chloro-N-(2-chloro-4-nitrophenyl)-2-hydroxybenzamide]
[1]; pH 6-7 (tap water, saliva)
  amount of niclosamide in solution: ~2 µM
[1]; pH 9.7, 10.0 and 10.45 carbonate-bicarbonate buffer, 1 hr stirring
  conversion of added powder at high pH: converted to red crystalline micro-crystals
Physchem [2]; pH 6.4, aqueous buffer
  solubility: 4.89 µM (≈ 1.6 µg/mL)
Physchem [2]; pH 9.1, aqueous buffer
  solubility: 336 µM (≈ 110 µg/mL)
Physchem [3]
  solubility kinetic: 3000 µM (≈ 981 µg/mL)
[4]
  pH at which a 30 uM niclosamide solution can be made: 8.16
  pH at which a 50 uM niclosamide solution can be made: 8.39
  pH at which a 200 uM niclosamide solution can be made: 9.01 and 8.92
  pH at which a 300 uM niclosamide solution can be made: 9.19 and 9.10
[4]; pKa 7.12, So 2.53 uM
  pH at which a 20 uM niclosamide solution can be made: 7.96 and 7.98
[5]
  supersaturation: ~15 times
Physchem [6]
  pKa: 6.52
[7]; Vero 6 cells, Braga et al [18], read-out: IC50 for viral replication
  IC50: 340 nM
[7]; Vero 6 cells, Brunaugh et al [91], including purported enhancement by lysozyme
  concentration to completely prevent viral replication: 0.4 µM
[7]; Vero 6 cells, Jeon et al [14]
  IC100, complete inhibition of viral replication: 1 µM
[7]; Vero 6 cells, Jeon et al [14], read-out: IC50 for viral replication
  IC50: 280 nM
[7]; Vero E6 cells, Mostafa et al [29], read-out: IC50 for inhibiting viral replication
  IC50: 160 nM
SARS-COV-2 syncytia
  effect on syncytia in vitro: protected against syncytia in vitro
[8]
  acute oral toxicity: > 1000 mg/kg
Over pH range 8.62 to 9.44, nominal 0.5 mM-1 mM
  factor of increase of fitted logarithmic dissolution rate: over 3 ×
pH 9.44 buffer, more optimized (standardized) stirring
  fitted logarithmic dissolution rate, factor of ln(x): 94
[9]; Calu-3 cells, Ko et al [34]
  IC100 for inhibiting viral replication (estimated from graph): 2 to 3 µM
[9]; Calu-3 cells, Ko et al [34], read-out: IC50 for viral replication
  IC50: 840 nM
[9]; respiratory Calu-3 cells, 2.5 uM, Braga et al [18]
  effect on viral replication: showed inhibition of viral replication
In vitro
  viability at 300 uM: 30%
Vero E6 cells
  CC50: 205000 nM
  concentration to which host cell viability extended: > 100 µM
[10]
  IC50: 140 nM
[11]; pH 6.4
  solubility: 1.6 µg/mL (≈ 4.89 µM)
[11]; pH 9.1
  solubility: 110 µg/mL (≈ 336 µM)
[12]
  airway epithelial cells still alive upon washout: 17%
[12]; 6 hr
  cell death: 83%
[13]
  IC50: 20000 to 30000 nM
